Test results taken from patent US20260242373A1, “NBD1 MODULATORS AND METHODS OF USING THE SAME” (Sionna Therapeutics Inc., priority 2023, published 2026).

tested on: NBD1; experiment: Aggregation analysis of NBD1 thermal stability by differential static light scattering (DSLS); type: binding, Human; details: 100 μM compound; ΔTagg versus DMSO control
Description: Purified recombinant NBD1 was produced using previously described methods (A. Schmidt, J. L. Mendoza, P. J. Thomas (2011) Biochemical and Biophysical Approaches to Probe CFTR Structure (365-376) M. D. Amaral, K. Kunzelmann (eds.), Cystic Fibrosis, Methods in Molecular Biology 741, Springer Science+Business Media). The effect of test compounds on thermal stability of NBD1 was evaluated by differential static light scattering (DSLS) using the Harbinger Stargazer-384 instrument (Epiphyte Three, Toronto, Canada). Test compounds were dissolved and diluted to desired concentrations in 100% DMSO. The compounds or DMSO controls (100 nL) were stamped into wells of a […] low volume optical plate (Corning Inc., Corning, NY) using the Echo 555 acoustic liquid handler (Labcyte Inc., San Jose, CA).
NBD1 protein was diluted to 0.2 mg/ml in S200 buffer (50 mM Tris-HCl, 150 mM NaCl, 5 mM MgCl2, 2 mM ATP, 2 mM DTT, pH7.6) containing 1% glycerol. 10 uL of protein solution was aliquoted into the 384-well plate harboring the test compounds and 10 uL mineral oil was overlayed onto the protein solution, using the epMotion robotic liquid handler (Eppendorf North America, Hauppauge, NY). After placing into the Stargazer instrument, the plate was heated at 1° C. per minute to 70° C. Images were captured from 25° C. to 70° C. every 0.5° C. At the end of the experiment run, instrument software integrated image files and analyzed data automatically. A […] regression curve was generated for each well, representing the increase in light scattering over time. A temperature of aggregation (Tagg) was calculated based on the inflection point of the curve. To better compare data across experiments the average Tagg for DMSO control wells was calculated and subtracted from values for wells containing compounds to obtain a “ΔTagg” value. These ΔTagg values reflect stabilizing efficacy of the compounds.

SMILES	DSLS NBD1/3D Human Stability delta-T (° C.) @ 100 (μM)
O=C(O)CCc1ccc(Cc2cnc(-c3cc(Oc4c(F)cc5[nH]ccc5c4F)ccc3F)[nH]2)s1 [Compound 43, 3-(5-((2-(5-((4,6-difluoro-1H-indol-5-yl)oxy)-2-fluorophenyl)-1H-imidazol-5-yl)methyl)thiophen-2-yl)propanoic acid]	A (A: T ≥8° C.)
Cn1cc(Cc2nnc(-c3cccc(Oc4ccc5[nH]ccc5n4)c3)[nH]2)cn1 [Compound 31, 5-(3-(5-((1-methyl-1H-pyrazol-4-yl)methyl)-4H-1,2,4-triazol-3-yl)phenoxy)-1H-pyrrolo[3,2-b]pyridine]	C (C: ≤4° C.)
Cn1nccc1C(O)c1cnc(-c2cccc(Oc3ccc4[nH]ccc4n3)c2)[nH]1 (centres unmarked) [Compound 33, (2-(3-((1H-pyrrolo[3,2-b]pyridin-5-yl)oxy)phenyl)-1H-imidazol-5-yl)(1-methyl-1H-pyrazol-5-yl)methanol]	C (C: ≤4° C.)
Cc1ncc(Cc2nnc(-c3cccc(Oc4ccc5[nH]ccc5c4)c3)[nH]2)s1 [Compound 18, 5-((5-(3-((1H-indol-5-yl)oxy)phenyl)-4H-1,2,4-triazol-3-yl)methyl)-2-methylthiazole]	B (B: 4-8° C.)
c1cc(Oc2ccc3[nH]ccc3c2)cc(-c2nnc(Cc3cscn3)[nH]2)c1 [Compound 13, 4-((5-(3-((1H-indol-5-yl)oxy)phenyl)-4H-1,2,4-triazol-3-yl)methyl)thiazole]	C (C: ≤4° C.)
CC(c1cc(N)n(-c2cc(Oc3c(F)cc4[nH]ccc4c3F)ccc2F)n1)c1cccc(CCC(=O)O)c1F (centres unmarked) [Compound 48, 3-(3-(1-(5-amino-1-(5-((4,6-difluoro-1H-indol-5-yl)oxy)-2-fluorophenyl)-1H-pyrazol-3-yl)ethyl)-2-fluorophenyl)propanoic acid]	B (B: 4-8° C.)
CC(c1cccc(CCC(=O)O)c1F)c1nn(-c2cc(Oc3c(F)cc4[nH]ccc4c3F)ccc2F)c2c1CCC2 (centres unmarked) [Compound 59, 3-[3-[1-[1-[5-[(4,6-difluoro-1H-indol-5-yl)oxy]-2-fluoro-phenyl]-5,6-dihydro-4H-cyclopenta[c]pyrazol-3-yl]ethyl]-2-fluoro-phenyl]propanoic acid]	C (C: ≤4° C.)
Cc1c(Oc2ccc(F)c(-c3ccn(Cc4cnc(CCC(N)=O)s4)n3)c2)c(F)cc2[nH]ccc12 [Compound 6]	C (C: ≤4° C.)
Cc1c[nH]c2cc(F)c(Oc3ccc(F)c(-c4ccn(Cc5cnc(CCC(N)=O)s5)n4)c3)cc12 [Compound 7, 3-(5-((3-(2-fluoro-5-((6-fluoro-3-methyl-1H-indol-5-yl)oxy)phenyl)-1H-pyrazol-1-yl)methyl)thiazol-2-yl)propanamide]	C (C: ≤4° C.)
Clc1ccc(Cc2n[nH]c(-c3cccc(Oc4cc5cc[nH]c5cn4)c3)n2)s1 [Compound 19, 5-(3-(3-((5-chlorothiophen-2-yl)methyl)-1H-1,2,4-triazol-5-yl)phenoxy)-1H-pyrrolo[2,3-c]pyridine]	C (C: ≤4° C.)
Cc1ncc(C(N)c2nnc(-c3cccc(Oc4ccc5[nH]cnc5c4)c3)[nH]2)s1 (centres unmarked) [Compound 36, (5-(3-((1H-benzo[d]imidazol-5-yl)oxy)phenyl)-4H-1,2,4-triazol-3-yl)(2-methylthiazol-5-yl)methanamine]	C (C: ≤4° C.)
O[C@H](Cc1cncs1)c1c[nH]c(-c2cccc(Oc3ccc4[nH]ccc4c3)c2)n1 (single isomer, unassigned) [Compound 23]	B (B: 4-8° C.)
Cc1cnc(C(O)c2c[nH]c(-c3cccc(Oc4ccc5[nH]ccc5c4)c3)n2)s1 (centres unmarked) [Compound 22, (2-(3-((1H-indol-5-yl)oxy)phenyl)-1H-imidazol-4-yl)(5-methylthiazol-2-yl)methanol]	B (B: 4-8° C.)
CC(c1cccc(CCC(=O)O)c1F)c1nc(-c2cc(Oc3c(F)cc4[nH]ccc4c3F)ccc2F)n2ccccc12 (centres unmarked) [Compound 46, 3-(3-(1-(3-(5-((4,6-difluoro-1H-indol-5-yl)oxy)-2-fluorophenyl)imidazo[1,5-a]pyridin-1-yl)ethyl)-2-fluorophenyl)propanoic acid]	C (C: ≤4° C.)
Cc1ncc(C(O)c2nnc(-c3cccc(Oc4ccc5[nH]ccc5c4C(=O)O)c3)[nH]2)s1 (centres unmarked) [Compound 38, 5-(3-(5-(hydroxy(2-methylthiazol-5-yl)methyl)-4H-1,2,4-triazol-3-yl)phenoxy)-1H-indole-4-carboxylic acid]	C (C: ≤4° C.)
O=C(NCC(O)C(F)(F)F)c1c(Oc2cccc(-c3nnc(C(O)c4cncs4)[nH]3)c2)ccc2[nH]ccc12 (centres unmarked) [Compound 42, 5-(3-(5-(hydroxy(thiazol-5-yl)methyl)-4H-1,2,4-triazol-3-yl)phenoxy)-N-(3,3,3-trifluoro-2-hydroxypropyl)-1H-indole-4-carboxamide]	B (B: 4-8° C.)
Cn1nccc1C(O)c1cnc(-c2cccc(Oc3ccc4[nH]ccc4c3)c2)[nH]1 (centres unmarked) [Compound 26, (2-(3-((1H-indol-5-yl)oxy)phenyl)-1H-imidazol-5-yl)(1-methyl-1H-pyrazol-5-yl)methanol]	C (C: ≤4° C.)
Cc1nc(Cc2nnc(-c3cccc(Oc4ccc5[nH]ccc5c4)c3)[nH]2)cs1 [Compound 17, 4-((5-(3-((1H-indol-5-yl)oxy)phenyl)-4H-1,2,4-triazol-3-yl)methyl)-2-methylthiazole]	C (C: ≤4° C.)
CN(C)CCNC(=O)c1c(Oc2cccc(-c3nnc(C(O)c4cncs4)[nH]3)c2)ccc2[nH]ccc12 (centres unmarked) [Compound 41, N-(2-(dimethylamino)ethyl)-5-(3-(5-(hydroxy(thiazol-5-yl)methyl)-4H-1,2,4-triazol-3-yl)phenoxy)-1H-indole-4-carboxamide]	C (C: ≤4° C.)
Cc1c(Oc2cccc(-c3nn(Cc4cccc(CCC(=O)O)c4)cc3F)c2)c(F)cc2[nH]ccc12 [Compound 54, 3-(3-((4-fluoro-3-(3-((6-fluoro-4-methyl-1H-indol-5-yl)oxy)phenyl)-1H-pyrazol-1-yl)methyl)phenyl)propanoic acid]	B (B: 4-8° C.)
c1cc(Oc2ccc3[nH]ccc3c2)cc(-c2nnc(Cc3ccsc3)[nH]2)c1 [Compound 11, 5-(3-(5-(thiophen-3-ylmethyl)-4H-1,2,4-triazol-3-yl)phenoxy)-1H-indole]	C (C: ≤4° C.)
Cc1ncc(C(O)c2nnc(-c3cccc(Oc4ccc5[nH]ccc5c4CO)c3)[nH]2)s1 (centres unmarked) [Compound 37, (5-(3-((4-(hydroxymethyl)-1H-indol-5-yl)oxy)phenyl)-4H-1,2,4-triazol-3-yl)(2-methylthiazol-5-yl)methanol]	B (B: 4-8° C.)
Cn1cc(C(O)c2cnc(-c3cccc(Oc4ccc5[nH]ccc5c4)c3)[nH]2)cn1 (centres unmarked) [Compound 27, (2-(3-((1H-indol-5-yl)oxy)phenyl)-1H-imidazol-5-yl)(1-methyl-1H-pyrazol-4-yl)methanol]	B (B: 4-8° C.)
Cn1cc(C(O)c2nnc(-c3cccc(Oc4ccc5[nH]ccc5c4)c3)[nH]2)cn1 (centres unmarked) [Compound 30, (5-(3-((1H-indol-5-yl)oxy)phenyl)-4H-1,2,4-triazol-3-yl)(1-methyl-1H-pyrazol-4-yl)methanol]	B (B: 4-8° C.)
CC(C1=NN(c2cc(Oc3c(F)cc4[nH]ccc4c3F)ccc2F)C(=O)C1)c1cccc(CCC(=O)O)c1F (centres unmarked) [Compound 51, 3-(3-(1-(1-(5-((4,6-difluoro-1H-indol-5-yl)oxy)-2-fluorophenyl)-5-oxo-4,5-dihydro-1H-pyrazol-3-yl)ethyl)-2-fluorophenyl)propanoic acid]	B (B: 4-8° C.)
Cn1cc(Cc2nnc(-c3cccc(Oc4ccc5[nH]ccc5c4)c3)[nH]2)cn1 [Compound 25, 5-(3-(5-((1-methyl-1H-pyrazol-4-yl)methyl)-4H-1,2,4-triazol-3-yl)phenoxy)-1H-indole]	C (C: ≤4° C.)
Cc1csc(Cc2nnc(-c3cccc(Oc4ccc5[nH]ccc5c4)c3)[nH]2)n1 [Compound 15, 2-((5-(3-((1H-indol-5-yl)oxy)phenyl)-4H-1,2,4-triazol-3-yl)methyl)-4-methylthiazole]	C (C: ≤4° C.)
C[C@H](c1nc(-c2cc(Oc3c(F)cc4[nH]ccc4c3F)ccc2F)n(C)n1)c1ccc(CCC(=O)O)s1 (single isomer, unassigned) [Compound 45]	A (A: T ≥8° C.)
Cn1nccc1C(O)c1cnc(-c2cccc(Oc3ccc4[nH]cnc4c3)c2)[nH]1 (centres unmarked) [Compound 29, (2-(3-((1H-benzo[d]imidazol-5-yl)oxy)phenyl)-1H-imidazol-5-yl)(1-methyl-1H-pyrazol-5-yl)methanol]	C (C: ≤4° C.)
